# Source: article PMC6017924, “Mycobacterium tuberculosis H37Rv LpqG Protein Peptides Can Inhibit Mycobacterial Entry through Specific Interactions” (Molecules : A Journal of Synthetic Chemistry and Natural …, 2018)
# Where no end group is shown, it is not given here.
# Experiments:
# U937 cells = type: cell-based; conditions: MTT, 20 and 200 µM peptide in PBS, 2 h, 5 × 10^4 cells/well; data not shown
# Method: (§1) An MTT cell viability assay was used for evaluating LpqG peptides’ cytotoxic effect; it involved placing 5 × 10^4 cells/well for 2 h with 20 and 200 µM each peptide in PBS, using the afore-mentioned incubation conditions. Triton X-100 was used as cytotoxicity control; 10 µL MTT were then added for 12 h. The resulting formazan crystals were dissolved in SDS and absorbance read at 570 nm.
# A549 cells = type: cell-based; conditions: MTT, 20 and 200 µM peptide in PBS, 2 h, 5 × 10^4 cells/well; data not shown
# Method: as §1
sequence,measurement,setting,value
SGCDSHNSGSLGADPRQVTVY [compound 16661],cytotoxic effect on U937 cells,U937 cells,without having a cytotoxic effect
same,cytotoxicity on A549 cells,A549 cells,4%
